According to patent US20240382651A1, “BUPIVACAINE-COLLAGEN DRUG DELIVERY IMPLANT AND METHODS OF MAKING AND USING THEREOF” (INNOCOLL PHARMACEUTICALS LIMITED, priority 2021, published 2024):
Structures can show the parent of a compound that is named as a salt.

Assay: Genotoxicity studies of bupivacaine HCl (4 in vitro, 2 in vivo)
Settings: 4 in vitro studies and 2 in vivo studies
Excerpt: The distribution, metabolism, and excretion of bupivacaine across species is characterized in the literature including data showing that, following absorption, bupivacaine is rapidly and readily distributed to tissues, with the highest concentrations in highly perfused tissues. In general, the metabolic profile of bupivacaine is similar across species although quantitatively different, with no novel metabolite identified in humans (Goehl, et al., 1973, Carson 2000). The excretion of bupivacaine in monkeys and humans is predominantly in the urine; in rats, excretion in urine and feces is generally similar; and in dogs, only small amounts of excretion of bupivacaine in the urine have been reported.

With CCCCN1CCCCC1C(=O)Nc1c(C)cccc1C (stereo not shown) [bupivacaine HCl] the Genotoxicity was “no safety concerns identified”.
